Measured values reported in the supplement of paper PMC10307832.

Compound: CC1=C(N=C(N=C1N)[C@H](CC(=O)N)NC[C@@H](C(=O)N)N)C(=O)N[C@@H]([C@H](C2=CN=CN2)OC3C(C(C(C(O3)CO)O)O)OC4C(C(C(C(O4)CO)O)OC(=O)N)O)C(=O)N[C@H](C)[C@H]([C@H](C)C(=O)N[C@@H]([C@@H](C)O)C(=O)NCCC5=NC(=CS5)C6=NC(=CS6)C(=O)NCCC[S+](C)C)O [Bleomycin] + C[C@@H](Oc1cc(-c2cnn(C3CCNCC3)c2)cnc1N)c1c(Cl)ccc(F)c1Cl [Crizotinib] (partner 1 µM)
Assay: relative viability (nuclei count vs DMSO), 5 days (fraction); higher = more cells survive
Settings: first compound 1 µM; main component drawn
In short: (§1)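 Relative viability is defined as nuclei in treated wells over nuclei in vehicle wells. Duplicate plates were run and medians reported. Lung cancer cell lines in 1536-well plates were dosed by pin tool one day after seeding, with one drug or with a fixed anchor-drug dose plus five library-drug doses (not always all listed) in √10 steps, and nuclei were counted after 5 days.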

In the case of NCI-H23, the relative viability was 0.153.

Compound: CC1=C(N=C(N=C1N)[C@H](CC(=O)N)NC[C@@H](C(=O)N)N)C(=O)N[C@@H]([C@H](C2=CN=CN2)OC3C(C(C(C(O3)CO)O)O)OC4C(C(C(C(O4)CO)O)OC(=O)N)O)C(=O)N[C@H](C)[C@H]([C@H](C)C(=O)N[C@@H]([C@@H](C)O)C(=O)NCCC5=NC(=CS5)C6=NC(=CS6)C(=O)NCCC[S+](C)C)O [Bleomycin] + C[C@]1(O)C[C@@H](c2nc(-c3ccc4ccc(-c5ccccc5)nc4c3)c3c(N)nccn32)C1 [Linsitinib] (partner 1 µM)
Assay: as above
Settings: first compound 0.01 µM; main component drawn
In short: as §1

In order of falling relative viability:
1. EPLC-272H  1.21
2. NCI-H2009  1.12
3. NCI-H3122  1.05
4. A-427  0.999
5. 201T  0.959
6. NCI-H520  0.949
7. HARA  0.944
8. HCC-827  0.943
9. LXF-289  0.899
10. NCI-H1915  0.891
11. BEN  0.862
12. NCI-H1651  0.862
13. NCI-H2347  0.848
14. LOU-NH91  0.78
15. NCI-H2405  0.745
16. NCI-H1734  0.73
17. SW 1573  0.705
18. CAL-12T  0.623
19. NCI-H650  0.585
20. HCC-78  0.488
21. HOP-62  0.485
22. HCC-44  0.462
23. NCI-H460  0.448
24. LU99A  0.379
25. NCI-H727  0.293
26. NCI-H23  0.292
27. LCLC-97TM1  0.138

Same assay, conditions: first compound 0.03162 µM; main component drawn

In order of rising relative viability:
1. LCLC-97TM1  0.165
2. NCI-H727  0.251
3. NCI-H23  0.253
4. HCC-44  0.283
5. HCC-78  0.343
6. LU99A  0.348
7. NCI-H460  0.356
8. CAL-12T  0.49
9. HOP-62  0.554
10. SW 1573  0.567
11. LOU-NH91  0.611
12. NCI-H1734  0.669
13. NCI-H1651  0.766
14. NCI-H650  0.791
15. NCI-H2405  0.834
16. NCI-H2347  0.846
17. BEN  0.868
18. LXF-289  0.91
19. NCI-H520  0.987
20. NCI-H1915  1.01
21. HARA  1.02
22. HCC-827  1.02
23. NCI-H3122  1.03
24. 201T  1.05
25. EPLC-272H  1.06
26. A-427  1.08
27. NCI-H2009  1.22

Same assay, conditions: first compound 0.1 µM; main component drawn

In order of rising relative viability:
1. LCLC-97TM1  0.141
2. NCI-H460  0.158
3. NCI-H23  0.225
4. LU99A  0.252
5. CAL-12T  0.258
6. HCC-44  0.26
7. NCI-H727  0.33
8. HOP-62  0.335
9. HCC-78  0.343
10. SW 1573  0.417
11. LOU-NH91  0.522
12. NCI-H1734  0.553
13. NCI-H650  0.582
14. NCI-H1651  0.596
15. NCI-H2405  0.69
16. NCI-H1915  0.813
17. NCI-H2347  0.831
18. LXF-289  0.839
19. HCC-827  0.88
20. HARA  0.887
21. BEN  0.896
22. NCI-H520  0.973
23. NCI-H3122  1.01
24. A-427  1.05
25. 201T  1.05
26. EPLC-272H  1.08
27. NCI-H2009  1.17

Same assay, conditions: first compound 0.3162 µM; main component drawn

In order of rising relative viability:
1. NCI-H460  0.0344
2. LCLC-97TM1  0.109
3. HOP-62  0.135
4. NCI-H23  0.152
5. CAL-12T  0.156
6. LU99A  0.166
7. HCC-44  0.176
8. NCI-H727  0.183
9. NCI-H1651  0.27
10. HCC-78  0.282
11. NCI-H1734  0.311
12. SW 1573  0.311
13. NCI-H650  0.328
14. LOU-NH91  0.37
15. NCI-H2405  0.373
16. LXF-289  0.389
17. NCI-H1915  0.428
18. HARA  0.457
19. NCI-H2347  0.484
20. BEN  0.637
21. HCC-827  0.666
22. NCI-H520  0.687
23. NCI-H3122  0.744
24. NCI-H2009  0.864
25. A-427  0.893
26. 201T  1
27. EPLC-272H  1.45

Same assay, conditions: first compound 1 µM; main component drawn

In order of falling relative viability:
1. 201T  0.83
2. BEN  0.682
3. NCI-H2009  0.58
4. NCI-H520  0.566
5. HARA  0.467
6. NCI-H2347  0.464
7. NCI-H3122  0.457
8. NCI-H2405  0.341
9. NCI-H727  0.34
10. LOU-NH91  0.317
11. HCC-827  0.308
12. A-427  0.266
13. NCI-H1734  0.227
14. NCI-H1915  0.216
15. NCI-H650  0.199
16. LXF-289  0.186
17. HCC-78  0.179
18. HCC-44  0.178
19. SW 1573  0.176
20. CAL-12T  0.176
21. NCI-H1651  0.152
22. LU99A  0.127
23. HOP-62  0.112
24. LCLC-97TM1  0.0963
25. NCI-H460  0.0252
